{"source": "ChEMBL document CHEMBL3769377", "about": "“A synthesis, in silico, in vitro and in vivo study of thieno[2,3-b]pyridine anticancer analogues” (Medchemcomm, 2015)", "key": {"[1]": {"biological_target": "NUAK family SNF1-like kinase 2 (Homo sapiens) (UniProt Q9H093)", "sequence (Q9H093 whole entry)": "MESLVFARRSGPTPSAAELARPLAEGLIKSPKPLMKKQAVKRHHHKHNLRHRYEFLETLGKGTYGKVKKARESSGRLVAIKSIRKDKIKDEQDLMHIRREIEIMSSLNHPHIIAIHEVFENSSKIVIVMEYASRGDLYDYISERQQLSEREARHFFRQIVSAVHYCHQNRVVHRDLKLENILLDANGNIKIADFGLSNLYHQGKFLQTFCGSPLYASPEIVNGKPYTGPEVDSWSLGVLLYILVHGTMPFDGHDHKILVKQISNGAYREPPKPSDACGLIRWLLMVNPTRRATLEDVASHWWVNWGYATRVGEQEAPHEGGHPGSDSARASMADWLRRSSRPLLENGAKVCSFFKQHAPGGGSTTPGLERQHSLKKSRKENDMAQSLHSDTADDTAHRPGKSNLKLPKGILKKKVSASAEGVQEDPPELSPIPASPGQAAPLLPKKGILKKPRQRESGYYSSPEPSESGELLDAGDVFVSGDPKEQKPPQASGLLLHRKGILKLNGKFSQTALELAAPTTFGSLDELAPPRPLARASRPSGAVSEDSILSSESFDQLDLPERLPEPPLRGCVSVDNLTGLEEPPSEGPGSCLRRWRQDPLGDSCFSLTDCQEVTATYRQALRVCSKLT", "test": "Inhibition of human recombinant SNARK assessed as residual activity at 10 uM after 1 hr by qPCR analysis relative to control"}, "[2]": {"biological_target": "Insulin-like growth factor 1 receptor (Homo sapiens) (UniProt P08069)", "test": "Inhibition of human recombinant IGF1R assessed as residual activity at 10 uM after 1 hr by qPCR analysis relative to control"}, "[3]": {"biological_target": "Insulin receptor (Homo sapiens) (UniProt P06213)", "test": "Inhibition of human recombinant INSR assessed as residual activity at 10 uM after 1 hr by qPCR analysis relative to control"}, "[4]": {"biological_target": "Atypical kinase COQ8A, mitochondrial (Homo sapiens) (UniProt Q8NI60)", "test": "Inhibition of human recombinant ADCK3 assessed as residual activity at 10 uM after 1 hr by qPCR analysis relative to control"}, "[5]": {"biological_target": "Serine/threonine-protein kinase pim-3 (Homo sapiens) (UniProt Q86V86)", "test": "Inhibition of human recombinant PIM3 assessed as residual activity at 10 uM after 1 hr by qPCR analysis relative to control"}, "[6]": {"biological_target": "Hepatocyte growth factor receptor (Homo sapiens) (UniProt P08581)", "sequence (P08581 whole entry)": "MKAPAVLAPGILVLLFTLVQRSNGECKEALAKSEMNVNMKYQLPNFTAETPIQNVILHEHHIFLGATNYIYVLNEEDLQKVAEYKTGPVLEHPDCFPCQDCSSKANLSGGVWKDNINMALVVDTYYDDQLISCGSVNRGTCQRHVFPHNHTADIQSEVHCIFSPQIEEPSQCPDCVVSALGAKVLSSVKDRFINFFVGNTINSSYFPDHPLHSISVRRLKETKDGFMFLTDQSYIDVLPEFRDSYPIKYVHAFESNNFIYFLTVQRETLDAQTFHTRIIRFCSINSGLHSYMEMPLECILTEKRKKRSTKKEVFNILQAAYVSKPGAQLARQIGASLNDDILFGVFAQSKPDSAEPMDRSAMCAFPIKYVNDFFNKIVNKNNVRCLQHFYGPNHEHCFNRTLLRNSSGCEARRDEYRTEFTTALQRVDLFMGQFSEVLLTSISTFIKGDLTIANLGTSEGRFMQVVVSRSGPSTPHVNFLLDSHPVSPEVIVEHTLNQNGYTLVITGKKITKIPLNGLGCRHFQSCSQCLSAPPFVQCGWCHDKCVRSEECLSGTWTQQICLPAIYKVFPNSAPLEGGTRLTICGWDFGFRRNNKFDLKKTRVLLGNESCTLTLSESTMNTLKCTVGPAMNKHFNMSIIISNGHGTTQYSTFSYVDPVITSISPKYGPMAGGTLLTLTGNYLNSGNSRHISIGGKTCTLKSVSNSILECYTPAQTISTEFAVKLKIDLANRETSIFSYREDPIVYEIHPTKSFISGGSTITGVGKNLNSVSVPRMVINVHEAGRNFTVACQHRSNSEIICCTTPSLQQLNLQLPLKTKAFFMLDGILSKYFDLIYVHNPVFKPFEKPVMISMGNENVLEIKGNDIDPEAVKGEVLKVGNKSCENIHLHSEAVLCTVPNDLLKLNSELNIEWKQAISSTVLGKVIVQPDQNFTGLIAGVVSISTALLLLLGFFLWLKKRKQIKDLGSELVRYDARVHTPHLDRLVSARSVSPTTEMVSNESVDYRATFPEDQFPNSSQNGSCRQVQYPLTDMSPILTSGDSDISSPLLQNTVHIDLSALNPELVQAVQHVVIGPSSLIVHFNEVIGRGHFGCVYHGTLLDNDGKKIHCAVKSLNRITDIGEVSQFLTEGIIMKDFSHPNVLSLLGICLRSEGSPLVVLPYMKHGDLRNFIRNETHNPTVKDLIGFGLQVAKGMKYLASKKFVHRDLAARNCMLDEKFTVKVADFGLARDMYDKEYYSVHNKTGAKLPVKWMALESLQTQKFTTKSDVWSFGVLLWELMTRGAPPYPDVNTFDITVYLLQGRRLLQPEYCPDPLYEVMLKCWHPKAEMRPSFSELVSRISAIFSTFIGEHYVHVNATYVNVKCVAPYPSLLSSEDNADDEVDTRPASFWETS", "test": "Inhibition of human recombinant MET assessed as residual activity at 10 uM after 1 hr by qPCR analysis relative to control"}, "[7]": {"biological_target": "Tyrosine-protein kinase JAK3 (Homo sapiens) (UniProt P52333)", "test": "Inhibition of human recombinant JAK3 (JH1 domain-catalytic) assessed as residual activity at 10 uM after 1 hr by qPCR analysis relative to control"}, "[8]": {"biological_target": "Serine/threonine-protein kinase ULK2 (Homo sapiens) (UniProt Q8IYT8)", "test": "Inhibition of human recombinant ULK2 assessed as residual activity at 10 uM after 1 hr by qPCR analysis relative to control"}, "[9]": {"biological_target": "Tyrosine-protein kinase ABL1 (Homo sapiens) (UniProt P00519)", "test": "Inhibition of human recombinant phosphorylated ABL1 assessed as residual activity at 10 uM after 1 hr by qPCR analysis relative to control"}, "[10]": {"biological_target": "Mitogen-activated protein kinase 8 (Homo sapiens) (UniProt P45983)", "test": "Inhibition of human recombinant JNK1 assessed as residual activity at 10 uM after 1 hr by qPCR analysis relative to control"}, "[11]": {"biological_target": "Cyclin-dependent kinase 2 (Homo sapiens) (UniProt P24941)", "test": "Inhibition of human recombinant CDK2 assessed as residual activity at 10 uM after 1 hr by qPCR analysis relative to control"}, "[12]": {"biological_target": "Receptor tyrosine-protein kinase erbB-2 (Homo sapiens) (UniProt P04626)", "test": "Inhibition of human recombinant ERBB2 assessed as residual activity at 10 uM after 1 hr by qPCR analysis relative to control"}, "[13]": {"biological_target": "Dual specificity tyrosine-phosphorylation-regulated kinase 1B (Homo sapiens) (UniProt Q9Y463)", "sequence (Q9Y463 whole entry, looked up)": "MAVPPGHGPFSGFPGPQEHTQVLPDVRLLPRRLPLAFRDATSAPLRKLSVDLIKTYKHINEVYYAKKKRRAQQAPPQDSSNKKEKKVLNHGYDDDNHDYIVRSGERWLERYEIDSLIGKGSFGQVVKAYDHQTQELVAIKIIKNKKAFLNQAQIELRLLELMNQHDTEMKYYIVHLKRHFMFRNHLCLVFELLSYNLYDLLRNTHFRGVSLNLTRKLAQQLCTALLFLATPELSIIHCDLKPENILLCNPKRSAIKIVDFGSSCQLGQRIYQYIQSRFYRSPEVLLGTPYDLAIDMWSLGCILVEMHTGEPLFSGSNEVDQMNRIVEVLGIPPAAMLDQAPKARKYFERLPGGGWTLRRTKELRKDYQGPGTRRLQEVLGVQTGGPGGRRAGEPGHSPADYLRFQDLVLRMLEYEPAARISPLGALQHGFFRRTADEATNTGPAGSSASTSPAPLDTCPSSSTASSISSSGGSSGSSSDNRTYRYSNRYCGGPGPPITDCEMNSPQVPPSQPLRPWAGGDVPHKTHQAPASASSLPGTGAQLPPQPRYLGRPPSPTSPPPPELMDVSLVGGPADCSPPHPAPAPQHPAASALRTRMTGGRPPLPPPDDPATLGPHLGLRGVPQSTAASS", "test": "Inhibition of human recombinant DYRK1B assessed as residual activity at 10 uM after 1 hr by qPCR analysis relative to control"}, "[14]": {"test_system": "Mast/stem cell growth factor receptor Kit (Homo sapiens), P10721 [D816V]", "test": "Inhibition of human recombinant KIT D816V mutant assessed as residual activity at 10 uM after 1 hr by qPCR analysis relative to control"}, "[15]": {"biological_target": "Proto-oncogene tyrosine-protein kinase receptor Ret (Homo sapiens) (UniProt P07949)", "sequence (P07949 whole entry)": "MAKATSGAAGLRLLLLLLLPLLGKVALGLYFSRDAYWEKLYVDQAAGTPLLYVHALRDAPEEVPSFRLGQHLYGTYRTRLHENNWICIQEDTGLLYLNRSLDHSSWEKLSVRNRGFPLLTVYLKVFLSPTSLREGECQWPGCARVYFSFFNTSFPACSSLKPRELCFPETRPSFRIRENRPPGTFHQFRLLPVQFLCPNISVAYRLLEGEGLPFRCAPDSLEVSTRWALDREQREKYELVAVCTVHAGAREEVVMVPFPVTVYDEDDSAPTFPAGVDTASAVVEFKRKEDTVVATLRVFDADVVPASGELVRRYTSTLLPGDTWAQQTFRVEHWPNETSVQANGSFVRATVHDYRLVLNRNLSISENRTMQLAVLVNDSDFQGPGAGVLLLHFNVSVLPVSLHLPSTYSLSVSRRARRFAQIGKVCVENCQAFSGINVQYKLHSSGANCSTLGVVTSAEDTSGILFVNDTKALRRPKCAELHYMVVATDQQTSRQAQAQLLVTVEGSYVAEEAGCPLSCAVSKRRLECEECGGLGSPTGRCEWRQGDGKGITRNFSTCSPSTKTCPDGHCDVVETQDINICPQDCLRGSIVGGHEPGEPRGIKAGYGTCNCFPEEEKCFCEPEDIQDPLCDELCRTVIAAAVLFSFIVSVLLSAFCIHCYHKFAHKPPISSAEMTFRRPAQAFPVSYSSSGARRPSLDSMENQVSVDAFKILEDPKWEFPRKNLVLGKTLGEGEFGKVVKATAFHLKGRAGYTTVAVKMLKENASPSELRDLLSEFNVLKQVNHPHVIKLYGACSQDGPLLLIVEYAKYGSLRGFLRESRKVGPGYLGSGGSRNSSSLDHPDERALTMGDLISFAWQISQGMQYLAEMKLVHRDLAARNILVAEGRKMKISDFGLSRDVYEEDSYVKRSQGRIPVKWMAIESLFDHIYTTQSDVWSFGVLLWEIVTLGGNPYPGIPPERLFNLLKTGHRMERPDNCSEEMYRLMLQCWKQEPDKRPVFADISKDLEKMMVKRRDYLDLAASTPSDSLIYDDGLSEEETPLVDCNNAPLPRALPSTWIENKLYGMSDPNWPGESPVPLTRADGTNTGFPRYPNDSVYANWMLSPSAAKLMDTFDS", "test": "Inhibition of human recombinant RET assessed as residual activity at 10 uM after 1 hr by qPCR analysis relative to control"}, "[16]": {"biological_target": "TGF-beta receptor type-1 (Homo sapiens) (UniProt P36897)", "test": "Inhibition of human recombinant TGFBR1 assessed as residual activity at 10 uM after 1 hr by qPCR analysis relative to control"}, "[17]": {"biological_target": "MAP/microtubule affinity-regulating kinase 3 (Homo sapiens) (UniProt P27448)", "sequence (P27448 whole entry, looked up)": "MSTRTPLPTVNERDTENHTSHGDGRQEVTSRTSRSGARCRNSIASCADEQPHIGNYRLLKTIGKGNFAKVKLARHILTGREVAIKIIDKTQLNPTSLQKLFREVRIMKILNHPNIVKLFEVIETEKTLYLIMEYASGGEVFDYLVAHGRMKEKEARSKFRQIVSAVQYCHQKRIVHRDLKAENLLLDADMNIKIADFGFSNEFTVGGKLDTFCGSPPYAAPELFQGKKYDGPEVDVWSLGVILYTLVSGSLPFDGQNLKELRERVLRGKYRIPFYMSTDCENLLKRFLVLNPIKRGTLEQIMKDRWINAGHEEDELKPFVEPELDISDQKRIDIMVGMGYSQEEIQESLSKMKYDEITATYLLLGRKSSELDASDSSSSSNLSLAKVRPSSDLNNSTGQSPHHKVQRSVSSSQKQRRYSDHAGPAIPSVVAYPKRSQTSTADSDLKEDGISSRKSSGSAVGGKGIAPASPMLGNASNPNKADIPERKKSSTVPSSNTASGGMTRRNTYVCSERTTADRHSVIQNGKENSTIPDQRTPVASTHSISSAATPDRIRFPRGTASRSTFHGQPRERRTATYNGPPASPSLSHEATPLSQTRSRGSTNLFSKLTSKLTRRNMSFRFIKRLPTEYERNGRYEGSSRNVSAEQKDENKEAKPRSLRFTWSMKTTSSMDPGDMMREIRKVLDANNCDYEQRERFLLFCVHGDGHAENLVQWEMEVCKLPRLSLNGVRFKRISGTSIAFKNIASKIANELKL", "test": "Inhibition of human recombinant MARK3 assessed as residual activity at 10 uM after 1 hr by qPCR analysis relative to control"}, "[18]": {"biological_target": "Dual specificity mitogen-activated protein kinase kinase 1 (Homo sapiens) (UniProt Q02750)", "test": "Inhibition of human recombinant MEK1 assessed as residual activity at 10 uM after 1 hr by qPCR analysis relative to control"}, "[19]": {"biological_target": "Aurora kinase B (Homo sapiens) (UniProt Q96GD4)", "sequence (Q96GD4 whole entry)": "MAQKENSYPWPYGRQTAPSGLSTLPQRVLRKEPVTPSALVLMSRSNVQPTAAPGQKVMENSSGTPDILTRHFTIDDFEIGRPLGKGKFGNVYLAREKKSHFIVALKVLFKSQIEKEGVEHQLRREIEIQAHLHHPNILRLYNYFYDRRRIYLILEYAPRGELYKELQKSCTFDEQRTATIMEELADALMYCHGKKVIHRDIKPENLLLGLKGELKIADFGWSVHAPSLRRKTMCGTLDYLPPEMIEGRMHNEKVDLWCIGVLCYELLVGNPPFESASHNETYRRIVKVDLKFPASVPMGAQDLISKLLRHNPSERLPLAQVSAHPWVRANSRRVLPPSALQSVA", "test": "Inhibition of human recombinant AURKB assessed as residual activity at 10 uM after 1 hr by qPCR analysis relative to control"}, "[20]": {"biological_target": "Tyrosine-protein kinase ZAP-70 (Homo sapiens) (UniProt P43403)", "test": "Inhibition of human recombinant ZAP70 assessed as residual activity at 10 uM after 1 hr by qPCR analysis relative to control"}, "Mus musculus [21]": {"test_system": "Mus musculus", "test": "Toxicity in athymic nude/beige mouse xenografted with human 786-O cells assessed as mild spasm at 0.16 mg/kg, ip qd after 24 days", "type": "organism-based, 786-0", "conditions": "in vivo, 576 h"}, "[22]": {"biological_target": "Casein kinase I isoform gamma-2 (Homo sapiens) (UniProt P78368)", "test": "Inhibition of human recombinant CSNK1G2 assessed as residual activity at 10 uM after 1 hr by qPCR analysis relative to control"}, "[23]": {"biological_target": "Glycogen synthase kinase-3 beta (Homo sapiens) (UniProt P49841)", "test": "Inhibition of human recombinant GSK3B assessed as residual activity at 10 uM after 1 hr by qPCR analysis relative to control"}, "[24]": {"biological_target": "Serine/threonine-protein kinase pim-2 (Homo sapiens) (UniProt Q9P1W9)", "test": "Inhibition of human recombinant PIM2 assessed as residual activity at 10 uM after 1 hr by qPCR analysis relative to control"}, "[25]": {"biological_target": "Mitogen-activated protein kinase 14 (Homo sapiens) (UniProt Q16539)", "test": "Inhibition of human recombinant p38alpha assessed as residual activity at 10 uM after 1 hr by qPCR analysis relative to control"}, "[26]": {"test_system": "Mast/stem cell growth factor receptor Kit (Homo sapiens), P10721 [V559D,T670I]", "test": "Inhibition of human recombinant KIT V559D/T670I double mutant assessed as residual activity at 10 uM after 1 hr by qPCR analysis relative to control"}, "[27]": {"biological_target": "Serine/threonine-protein kinase PLK3 (Homo sapiens) (UniProt Q9H4B4)", "test": "Inhibition of human recombinant PLK3 assessed as residual activity at 10 uM after 1 hr by qPCR analysis relative to control"}, "[28]": {"biological_target": "Cyclin-dependent kinase 9 (Homo sapiens) (UniProt P50750)", "test": "Inhibition of human recombinant CDK9 assessed as residual activity at 10 uM after 1 hr by qPCR analysis relative to control"}, "Mus musculus [29]": {"test_system": "Mus musculus", "test": "Toxicity in athymic nude/beige mouse xenografted with human 786-O cells assessed as signs of facial hirsutism at 0.16 mg/kg, ip qd after 24 days", "type": "organism-based, 786-0", "conditions": "in vivo, 576 h"}, "[30]": {"biological_target": "Serine/threonine-protein kinase PAK 4 (Homo sapiens) (UniProt O96013)", "test": "Inhibition of human recombinant PAK4 assessed as residual activity at 10 uM after 1 hr by qPCR analysis relative to control"}, "[31]": {"biological_target": "Serine/threonine-protein kinase PAK 1 (Homo sapiens) (UniProt Q13153)", "test": "Inhibition of human recombinant PAK1 assessed as residual activity at 10 uM after 1 hr by qPCR analysis relative to control"}}, "data": [{"molecule": "Cc1c(Cl)cccc1NC(=O)c1sc2nc3c(cc2c1N)C(=O)CC3", "values": [{"measurement": "Activity", "setting": "[1]", "value": 100, "unit": "%"}, {"measurement": "Activity", "setting": "[2]", "value": 97, "unit": "%"}, {"measurement": "Activity", "setting": "[3]", "value": 97, "unit": "%"}, {"measurement": "Activity", "setting": "[4]", "value": 96, "unit": "%"}, {"measurement": "Activity", "setting": "[5]", "value": 92, "unit": "%"}, {"measurement": "Activity", "setting": "[6]", "value": 100, "unit": "%"}, {"measurement": "Activity", "setting": "[7]", "value": 100, "unit": "%"}, {"measurement": "Activity", "setting": "[8]", "value": 97, "unit": "%"}, {"measurement": "Activity", "setting": "[9]", "value": 100, "unit": "%"}, {"measurement": "Activity", "setting": "[10]", "value": 100, "unit": "%"}, {"measurement": "Activity", "setting": "[11]", "value": 100, "unit": "%"}, {"measurement": "Activity", "setting": "[12]", "value": 100, "unit": "%"}, {"measurement": "Activity", "setting": "[13]", "value": 57, "unit": "%"}, {"measurement": "Activity", "setting": "[14]", "value": 93, "unit": "%"}, {"measurement": "Activity", "setting": "[15]", "value": 100, "unit": "%"}, {"measurement": "Activity", "setting": "[16]", "value": 100, "unit": "%"}, {"measurement": "Activity", "setting": "[17]", "value": 96, "unit": "%"}, {"measurement": "Activity", "setting": "[18]", "value": 100, "unit": "%"}, {"measurement": "Activity", "setting": "[19]", "value": 92, "unit": "%"}, {"measurement": "Activity", "setting": "[20]", "value": 95, "unit": "%"}, {"measurement": "Activity", "setting": "Mus musculus [21]", "value": "Toxic"}, {"measurement": "Activity", "setting": "[22]", "value": 97, "unit": "%"}, {"measurement": "Activity", "setting": "[23]", "value": 92, "unit": "%"}, {"measurement": "Activity", "setting": "[24]", "value": 80, "unit": "%"}, {"measurement": "Activity", "setting": "[25]", "value": 100, "unit": "%"}, {"measurement": "Activity", "setting": "[26]", "value": 99, "unit": "%"}, {"measurement": "Activity", "setting": "[27]", "value": 100, "unit": "%"}, {"measurement": "Activity", "setting": "[28]", "value": 100, "unit": "%"}, {"measurement": "Activity", "setting": "Mus musculus [29]", "value": "Toxic"}, {"measurement": "Activity", "setting": "[30]", "value": 85, "unit": "%"}, {"measurement": "Activity", "setting": "[31]", "value": 87, "unit": "%"}]}]}
